27 molecules from patent US9693997B2, “Antiviral compounds” (priority 2013, dated 2017) can be followed below.

Where two headings read alike, the source gives them in different places. Where only a bound is given, the exact number is not on record here.

Holding throughout (experiment): microbe, parasite or virus in culture
Assay [1] deals with Pseudotyped HCV GT1b particles (HCVpp), entry into Huh7-high CD81 cells. It counts as cell-based, HCV GT1b Con1 strain.
Assay [2] deals with Pseudotyped HCV GT1a particles (HCVpp), entry into Huh7-high CD81 cells. It counts as cell-based, HCV GT1a H77 strain. As to conditions: Hepatitis C virus, 72 h, read-out: HCVpp GT-1a (EC50, μM).
For assay [3], the system named is pseudotyped VSV G particles (VSVpp) in Huh7-high CD81 cells. It counts as cell-based, vesicular stomatitis virus.
Where [4] appears, read: Hepatitis C virus, GT1B, 72 h, read-out: HCVpp GT-1b (EC50, μM).
[5] abbreviates: Vesicular stomatitis virus, 72 h, read-out: VSVpp (EC50, μM).

Usually EC50 stands for the concentration needed to bring the measured effect to its halfway point.

In the case of `Nc1nc(Nc2ccc(-c3ccc(NC(=O)CCCC[C@@H]4SC[C@@H]5NC(=O)N[C@@H]54)cc3)cc2)n[nH]1` (stereo in doubt) [Compound 54, 5-((3aS,4S,6aR)-2-Oxo-hexaneahydro-thieno[3,4-d]imidazol-4-yl)-pentanoic acid [4′-(5-amino-1H-[1,2,4]triazol-3-ylamino)-biphenyl-4-yl]-amide], the EC50 in assay [1] (setting [4]) was 10 µM; in assay [2], 5.73 µM; in assay [3] (setting [5]), greater than 10 µM.
`CC(C)(C)OC(=O)N1CCC(S(=O)(=O)c2ccc(-c3c(Cl)cc(Nc4n[nH]c(N)n4)cc3C(F)(F)F)cc2)CC1` [Compound 1, 4-[4′-(5-Amino-1H-[1,2,4]triazol-3-ylamino)-2′-chloro-6′-trifluoromethyl-biphenyl-4-sulfonyl]-piperidine-1-carboxylic acid tert-butyl ester]: the EC50 was 0.001 µM in assay [1] (setting [4]), 0.014 µM in assay [2] and greater than 10 µM in assay [3] (setting [5]).
The corresponding values for `CS(=O)(=O)NCc1ccc(-c2c(Cl)cc(Nc3n[nH]c(N)n3)cc2Cl)cc1` [Compound 12, N-[4′-(5-Amino-1H-[1,2,4]triazol-3-ylamino)-2′,6′-dichloro-biphenyl-4-ylmethyl]-methanesulfonamide] are 0.035 µM, 0.003 µM and 18.3 µM.
As to `CC(C)S(=O)(=O)c1ccc(-c2c(Cl)cc(Nc3n[nH]c(N)n3)cc2C(F)(F)F)cc1` [Compound 181, N3-(2-chloro-4′-(isopropylsulfonyl)-6-(trifluoromethyl)biphenyl-4-yl)-1H-1,2,4-triazole-3,5-diamine], the figures for the EC50 in assay [1] (setting [4]) and in assay [2] were 0.059 µM and 0.021 µM, respectively.
Regarding `CC(C)(C)NS(=O)(=O)c1ccc(-c2c(Cl)cc(Nc3n[nH]c(N)n3)cc2C(F)(F)F)cc1OC(F)(F)F` [Compound 217, 4′-(5-Amino-1H-[1,2,4]triazol-3-ylamino)-6′-chloro-3-trifluoromethoxy-2′-trifluoromethylbiphenyl-4-sulfonic acid tert-butylamide], the values for the EC50 in assay [2] and in assay [3] (setting [5]) were 0.003 µM and 7.5 µM, respectively.
For `CC(C)(C)NS(=O)(=O)c1ccc(-c2c(Cl)cc(Nc3n[nH]c(N)n3)cc2C(F)(F)F)cc1` [Compound 219, 4′-(5-Amino-1H-[1,2,4]triazol-3-ylamino)-6′-chloro-2′-trifluoromethyl-biphenyl-4-sulfonic acid tert-butylamide], in that order: 0.011 µM and 16.2 µM.
With `Nc1nc(Nc2cc(Cl)c(-c3ccc(OC[C@H]4CCCN4)cc3)c(Cl)c2)n[nH]1` [Compound 272, N*3*-[2,6-Dichloro-4′-((R)-1-pyrrolidin-2-ylmethoxy)-biphenyl-4-yl]-1H-[1,2,4]triazole-3,5-diamine], the results for the half-maximal effective concentration (EC50) in assay [1] (setting [4]) and in assay [3] (setting [5]) were 0.147 µM and 4.49 µM, respectively.
The corresponding values for `CC(C)(C)OC(=O)N1CC[C@H](Oc2ccc(-c3c(Cl)cc(Nc4n[nH]c(N)n4)cc3Cl)cc2)C1` [Compound 273, (S)-3-[4′-(5-Amino-1H-[1,2,4]triazol-3-ylamino)-2′,6′-dichloro-biphenyl-4-yloxy]-pyrrolidine-1-carboxylic acid tert-butyl ester] are 0.28 µM and greater than 10 µM.
For the molecule `CC1(C)OCC(COc2ccc(-c3c(Cl)cc(Nc4n[nH]c(N)n4)cc3Cl)cc2)O1` (stereo not drawn) [Compound 274, N*3*-[2,6-Dichloro-4′-(2,2-dimethyl-[1,3]dioxolan-4-ylmethoxy)-biphenyl-4-yl]-1H-[1,2,4]triazole-3,5-diamine], the concentration for a half-maximal effect (EC50) in assay [1] (setting [4]) amounted to 0.121 µM; in assay [3] (setting [5]), 34.1 µM.
For `CC(C)(C)OC(=O)N1CCC[C@@H]1COc1ccc(-c2c(Cl)cc(Nc3n[nH]c(N)n3)cc2Cl)cc1` [Compound 275, (R)-2-[4′-(5-Amino-1H-[1,2,4]triazol-3-ylamino)-2′,6′-dichloro-biphenyl-4-yloxymethyl]-pyrrolidine-1-carboxylic acid tert-butyl ester], the EC50 in assay [1] (setting [4]) was 0.285 µM; in assay [3] (setting [5]) it was greater than 10 µM.
For `CC(C)(C)OC(=O)COc1ccc(-c2c(Cl)cc(Nc3n[nH]c(N)n3)cc2Cl)cc1` [Compound 276, [4′-(5-Amino-1H-[1,2,4]triazol-3-ylamino)-2′,6′-dichloro-biphenyl-4-yloxy]-acetic acid tert-butyl ester], in that order: 0.168 µM and greater than 10 µM.
The corresponding values for `CC(C)(C)OC(=O)N1CCC[C@H]1COc1ccc(-c2c(Cl)cc(Nc3n[nH]c(N)n3)cc2C(F)(F)F)cc1` [Compound 277, (S)-2-[4′-(5-Amino-1H-[1,2,4]triazol-3-ylamino)-2′-chloro-6′-trifluoromethyl-biphenyl-4-yloxymethyl]-pyrrolidine-1-carboxylic acid tert-butyl ester] are 0.312 µM and 27.9 µM.
Turning to `COCCOc1ccc(-c2c(Cl)cc(Nc3n[nH]c(N)n3)cc2Cl)cc1` [Compound 278, N*3*-[2,6-Dichloro-4′-(2-methoxy-ethoxy)-biphenyl-4-yl]-1H-[1,2,4]triazole-3,5-diamine], the EC50 in assay [1] (setting [4]) is 0.264 µM; in assay [3] (setting [5]) it was 5.31 µM.
For the molecule `CC(C)(C)OC(=O)N1CCC[C@H]1COc1ccc(-c2c(Cl)cc(Nc3n[nH]c(N)n3)cc2Cl)cc1` [Compound 280, (S)-2-[4′-(5-Amino-1H-[1,2,4]triazol-3-ylamino)-2′,6′-dichloro-biphenyl-4-yloxymethyl]-pyrrolidine-1-carboxylic acid tert-butyl ester], the values for the EC50 in assay [1] (setting [4]) and in assay [3] (setting [5]) were 0.401 µM and greater than 10 µM, respectively.
For the molecule `Nc1nc(Nc2cc(Cl)c(-c3ccc(OCCN4CCOCC4)cc3)c(Cl)c2)n[nH]1` [Compound 281, N*3*-[2,6-Dichloro-4′-(2-morpholin-4-yl-ethoxy)-biphenyl-4-yl]-1H-[1,2,4]triazole-3,5-diamine], the EC50 came to 0.244 µM in assay [1] (setting [4]) and 23.4 µM in assay [3] (setting [5]).
With `Nc1nc(Nc2cc(Cl)c(-c3ccc(OCC(O)CO)cc3)c(Cl)c2)n[nH]1` (stereo not drawn) [Compound 282, 3-[4′-(5-Amino-1H-[1,2,4]triazol-3-ylamino)-2′,6′-dichloro-biphenyl-4-yloxy]-propane-1,2-diol-diamine], the EC50 in assay [1] (setting [4]) amounted to 0.213 µM; in assay [3] (setting [5]), 39.7 µM.
The corresponding values for `Nc1nc(Nc2cc(Cl)c(-c3ccc(OCCCN4CCOCC4)cc3)c(Cl)c2)n[nH]1` [Compound 283, N*3*-[2,6-Dichloro-4′-(3-morpholin-4-yl-propoxy)-biphenyl-4-yl]-1H-[1,2,4]triazole-3,5-diamine] are 0.523 µM and greater than 10 µM.
The corresponding values for `Nc1nc(Nc2cc(Cl)c(-c3ccc(OCc4ccccn4)cc3)c(Cl)c2)n[nH]1` [Compound 284, N*3*-[2,6-Dichloro-4′-(pyridin-2-ylmethoxy)-biphenyl-4-yl]-1H-[1,2,4]triazole-3,5-diamine] are 0.576 µM and greater than 10 µM.
On to `Nc1nc(Nc2cc(Cl)c(-c3ccc(OCC(=O)O)cc3)c(Cl)c2)n[nH]1` [Compound 285, [4′-(5-Amino-1H-[1,2,4]triazol-3-ylamino)-2′,6′-dichloro-biphenyl-4-yloxy]-acetic acid], for which the EC50 in assay [1] (setting [4]) was 4.97 µM; in assay [3] (setting [5]), greater than 10 µM.
As for `CS(=O)(=O)c1ccc(-c2ccc(Nc3n[nH]c(N)n3)cc2S(F)(F)(F)(F)F)cc1` [Compound 288, N*3*-(4′-Methanesulfonyl-2-pentafluorosulfur-biphenyl-4-yl)-1H-[1,2,4]triazole-3,5-diamine], the EC50 came to 1.23 µM in assay [1] (setting [4]) and 8.93 µM in assay [3] (setting [5]).
The corresponding values for `CS(=O)(=O)Nc1cccc(-c2c(Cl)cc(Nc3n[nH]c(N)n3)cc2C(F)(F)F)c1` [Compound 290, N-(4′-(5-amino-1H-1,2,4-triazol-3-ylamino)-2′-chloro-6′-(trifluoromethyl)biphenyl-3-yl)methanesulfonamide] are 0.149 µM and 14.4 µM.
On to `CNC(=O)c1ccc(-c2c(Cl)cc(Nc3n[nH]c(N)n3)cc2C(F)(F)F)cc1F` [Compound 291, 4′-(5-amino-1H-1,2,4-triazol-3-ylamino)-2′-chloro-3-fluoro-N-methyl-6′-(trifluoromethyl)biphenyl-4-carboxamide], for which the 50% effective concentration (EC50) in assay [1] (setting [4]) turned out to be 0.325 µM; in assay [3] (setting [5]), 21.5 µM.
The corresponding values for `CNC(=O)c1cc(-c2c(Cl)cc(Nc3n[nH]c(N)n3)cc2C(F)(F)F)ccc1F` [Compound 292, 4′-(5-amino-1H-1,2,4-triazol-3-ylamino)-2′-chloro-4-fluoro-N-methyl-6′-(trifluoromethyl)biphenyl-3-carboxamide] are 0.647 µM and 29.2 µM.
For the molecule `Nc1nc(Nc2cc(Cl)c(-c3ccc(C(=O)NCCO)c(F)c3)c(C(F)(F)F)c2)n[nH]1` [Compound 293, 4′-(5-amino-1H-1,2,4-triazol-3-ylamino)-2′-chloro-3-fluoro-N-(2-hydroxyethyl)-6′-(trifluoromethyl)biphenyl-4-carboxamide], the figures for the concentration giving a half-maximal response (EC50) in assay [1] (setting [4]) and in assay [3] (setting [5]) were 0.139 µM and 15.7 µM, respectively.
With `Nc1nc(Nc2cc(Cl)c(-c3ccc(F)c(C(=O)NCCO)c3)c(C(F)(F)F)c2)n[nH]1` [Compound 294, 4′-(5-amino-1H-1,2,4-triazol-3-ylamino)-2′-chloro-4-fluoro-N-(2-hydroxyethyl)-6′-(trifluoromethyl)biphenyl-3-carboxamide], the EC50 in assay [1] (setting [4]) came to 0.544 µM; in assay [3] (setting [5]), 38.3 µM.
The corresponding values for `Nc1nc(Nc2cc(Cl)c(-c3ccc(S(=O)(=O)NC4COC4)cc3)c(C(F)(F)F)c2)n[nH]1` [Compound 295, 4′-(5-amino-1H-1,2,4-triazol-3-ylamino)-2′-chloro-N-(oxetan-3-yl)-6′-(trifluoromethyl)biphenyl-4-sulfonamide] are 0.022 µM and 10 µM.
Regarding “[4′-(5-amino-1H-[1,2,4]triazol-3-ylamino)-2′-chloro-6′-trifluoromethyl-biphenyl-4-yl]-carbamic acid propyl ester [Compound 238]”, the EC50 in assay [1] (read-out: HCVpp GT-1b (EC50)) turned out to be 0.078 µM; in assay [3] (read-out: VSVpp (EC50)), 24.9 µM.
